According to patent US6380218B1, “Nicotinamide derivatives” (Pfizer Inc, priority 1997, dated 2002):

Compound | melting point [°C]
O=C(NCc1ccccc1Cl)c1cccnc1OCc1cccnc1 [Example 246, N-(2-Chloro-benzyl)-2-(pyridin-3-ylmethoxy)-nicotinamide] | 91 to 93
COc1ccc(CCC(=O)c2cccnc2Oc2ccc(F)cc2)cc1 [Example 249, 1-[2-(4-Fluorophenoxy)-3-pyridinyl]-3-(4-methoxyphenyl)-1-propanone] | 73 to 74
O=C(CCc1ccc(C(F)(F)F)cc1)c1cccnc1Oc1ccc(F)cc1 [Example 252, 1-[2-(4-Fluoro-phenoxy)-pyridin-3-yl]-3-(4-trifluoromethyl-phenyl)-propan-1-one] | 94 to 95
O=C(CCc1ccc(OC(F)(F)F)cc1)c1cccnc1Oc1ccc(F)cc1 [Example 253, 1-[2-(4-Fluoro-phenoxy)-pyridin-3-yl]-3-(4-trifluoromethoxy-phenyl)-propan-1-one] | 79 to 81
O=C(CCc1cc(F)cc(F)c1)c1cccnc1Oc1ccc(F)cc1 [Example 254, 3-(3,5-Difluoro-phenyl)-1-[2-(4-fluoro-phenoxy)-pyridin-3-yl]-propan-1-one] | 69 to 70
O=C(CCc1c(F)cc(F)cc1F)c1cccnc1Oc1ccc(F)cc1 [Example 255, 1-[2-(4-Fluoro-phenoxy)-pyridin-3-yl]-3-(2,4,6-trifluoro-phenyl)-propan-1-one] | 84 to 85
O=C(CCc1ccccc1)c1cccnc1Oc1ccc(F)cc1 [Example 256, 1-[2-(4-Fluorophenoxy)-3-pyridinyl]-3-phenyl-1-propanone] | 82 to 83
O=C(CCc1ccccc1)c1cccnc1Oc1cccnc1 [Example 257, 3-Phenyl-1-[2-(pyridin-3-yloxy)-pyridin-3-yl]-propan-1-one] | 45 to 46
O=C(CCc1ccc(F)cc1)c1cccnc1Oc1cccnc1 [Example 258, 3-(4-Fluoro-phenyl)-1-[2-(pyridin-3-yloxy)-pyridin-3-yl]-propan-1-one] | 62 to 64
O=C(Cc1ccccc1)c1cccnc1Oc1ccc(F)cc1 [Example 264, 1-[2-(4-Fluoro-phenoxy)-pyridin-3-yl]-2-phenyl-ethanone] | 81 to 82
O=C(COc1ccccc1)c1cccnc1Oc1ccc(F)cc1 [Example 265, 1-[2-(4-Fluoro-phenoxy)-pyridin-3-yl]-2-phenoxy-ethanone] | 105.5 to 106.5
O=C(COc1ccccc1Cl)c1cccnc1Oc1ccc(F)cc1 [Example 266, 2-(2-Chloro-phenoxy)-1-[2-(4-fluoro-phenoxy)-pyridin-3-yl]-ethanone] | 92 to 93
O=C(c1cc2ccccc2[nH]1)c1cccnc1Oc1ccc(F)cc1 [Example 269, [2-(4-Fluoro-phenoxy)-pyridin-3-yl]-(1H-indol-2-yl)-methanone] | 169 to 170
CN(CC(=O)c1cccnc1Oc1ccc(F)cc1)c1ccccc1 [Example 270, 1-[2-(4-Fluoro-phenoxy)-pyridin-3-yl]-2-(methyl-phenyl-amino)-ethanone] | 126 to 128
OC(CCc1c(F)cc(F)cc1F)c1cccnc1Oc1ccc(F)cc1 (centres unmarked) [Example 274, 1-[2-(4-Fluoro-phenoxy)-pyridin-3-yl]-3-(2,4,6-trifluoro-phenyl)-propan-1-ol] | 90 to 91
O=C1CCC(CNC(=O)c2cccnc2Oc2ccc(F)cc2)CC1 [Example 286, 2-(4-Fluoro-phenoxy)-N-(4-oxo-cyclohexylmethyl)-nicotinamide] | 157 to 159
O=C(NCC1CCC(O)CC1)c1cccnc1Oc1ccc(F)cc1 (centres unmarked) [Example 288, 2-(4-Fluoro-phenoxy)-N-(4-hydroxy-cyclohexylmethyl)-nicotinamide] | 110 to 112
CCOC(=O)C1CCC(CNC(=O)c2cccnc2Oc2cccc(C(N)=O)c2)CC1 (centres unmarked) [Example 295, 4-({[2-(3-Carbamoyl-phenoxy)-pyridine-3-carbonyl]-amino}-methyl)-cyclohexanecarboxylic acid ethyl ester] | 160 to 162
CC(=O)c1cccc(Oc2ncccc2C(=O)NCc2ccc([C@H](C)O)cc2)c1 [Example 306, (S)-(−)-2-(3-Acetyl-phenoxy)-N-(4-(1-hydroxy-ethyl)-benzyl)-nicotinamide] | 102 to 104
CC(=O)c1cccc(Oc2ncccc2C(=O)NCc2ccc([C@@H](C)O)cc2)c1 [Example 307, (R)-(+)-2-(3-Acetyl-phenoxy)-N-(4-(1-hydroxy-ethyl)-benzyl)-nicotinamide] | 104 to 106
CC(=O)c1cc(Cl)cc(Oc2ncccc2C(=O)NC[C@H]2CC[C@H](C(C)(C)O)CC2)c1 [Example 308, 2-(3-Acetyl-5-chloro-phenoxy)-N-(trans-4-(1-hydroxy-1-methyl-ethyl)-cyclohexylmethyl)-nicotinamide] | 133 to 135
CC(=O)c1cc(Oc2ncccc2C(=O)NC[C@H]2CC[C@H](C(C)(C)O)CC2)ccc1Cl [Example 309, 2-(3-Acetyl-4-chloro-phenoxy)-N-(trans-4-(1-hydroxy-1-methyl-ethyl)-cyclohexylmethyl)-nicotinamide] | 106 to 108
Cc1noc2ccc(Oc3ncccc3C(=O)NCC3CCC(C(C)(C)O)CC3)cc12 (centres unmarked) [Example 315, N-(4-(1-Hydroxy-1-methyl-ethyl)-cyclohexylmethyl)-2-(3-methyl-benzo(d)-isoxazol-5-yloxy)-nicotinamide] | 135 to 137
Cc1noc2c(Oc3ncccc3C(=O)NCC3CCC(C(C)(C)O)CC3)cccc12 (centres unmarked) [Example 317, N-(4-(1-Hydroxy-1-methyl-ethyl)-cyclohexylmethyl)-2-(3-methyl-benzo(d)-isoxazol-7-yloxy)-nicotinamide] | 170 to 172
CC(C)(O)C1CCC(CNC(=O)c2cccnc2Oc2ccc(F)c(C#N)c2)CC1 (centres unmarked) [Example 322, 2-(3-Cyano-4-fluoro-phenoxy)-N-[4-(1-hydroxy-1-methyl-ethyl)-cyclohexylmethyl]-nicotinamide] | 85 to 88

The next lines start with the values.

melting point [°C] | Compound
78 to 80 | CC(C)(O)C1CCC(CNC(=O)c2cccnc2Oc2ccc(F)cc2)CC1 (centres unmarked) [Example 245, 2-(4-Fluoro-phenoxy)-N-[4-(1-hydroxy-1-methyl-ethyl)-cyclohexylmethyl]-nicotinamide]
99.5 to 101.5 | CN(C)c1ccc(CNC(=O)c2cccnc2Oc2ccc(F)cc2)cc1 [Example 247, N-[[4-(Dimethylamino)phenyl]methyl]-2-(4-fluorophenoxy)-3-pyridinecarboxamide]
71 to 74 | COc1cccc(Oc2ncccc2C(=O)NCc2ccccc2Cl)c1 [Example 283, N-(2-Chloro-benzyl)-2-(3-methoxy-phenoxy)-nicotinamide]
145 to 147 | CC(C)(O)c1ccc(CNC(=O)c2cccnc2Oc2cccc3c2CCC3=O)cc1 [Example 284, N-[4-(1-Hydroxy-1-methyl-ethyl)-benzyl]-2-(1-oxo-indan-4-yloxy)-nicotinamide]
106 to 108 | CC(=O)c1ccc(CNC(=O)c2cccnc2Oc2ccc(F)cc2)cc1 [Example 285, N-[4-Acetyl-benzyl)-2-(4-fluoro-phenoxy)-nicotinamide]
153 to 155 | NC(=O)c1cccc(Oc2ncccc2C(=O)NCc2ccccc2Cl)c1 [Example 289, 2-(3-Carbamoyl-phenoxy)-N-(2-chloro-benzyl)-nicotinamide]
118 to 120 | CC(C)(O)c1ccc(CNC(=O)c2cccnc2Oc2ccc3c(c2)OCO3)cc1 [Example 293, 2-(Benzo[1,3]dioxol-5-yloxy)-N-[4-(1-hydroxy-1-methyl-ethyl)-benzyl]-nicotinamide]
195 to 197 | CC(C)(O)c1ccc(CNC(=O)c2cccnc2Oc2ccc3ncsc3c2)cc1 [Example 301, 2-(Benzothiazol-6-yloxy)-N-(4-(1-hydroxy-1-methyl-ethyl)-benzyl)-nicotinamide]
92 to 94 | CC(C)(O)c1ccc(CNC(=O)c2cccnc2Oc2ccc3ncoc3c2)cc1 [Example 302, 2-(Benzooxazol-6-yloxy)-N-(4-(1-hydroxy-1-methyl-ethyl)-benzyl)-nicotinamide]
110 to 112 | CC(=O)c1cc(Cl)cc(Oc2ncccc2C(=O)NCc2ccc(C(C)(C)O)cc2)c1 [Example 305, 2-(3-Acetyl-5-chloro-phenoxy)-N-(4-(1-Hydroxy-1-methyl-ethyl)-benzyl)-nicotinamide]
128 to 130 | Cc1noc2ccc(Oc3ncccc3C(=O)NCc3ccc(C(C)(C)O)cc3)cc12 [Example 316, N-(4-(1-Hydroxy-1-methyl-ethyl)-benzyl)-2-(3-methyl-benzo(d)-isoxazol-5-yloxy)-nicotinamide]
94 to 95 | CC(C)(O)c1ccc(CNC(=O)c2cccnc2Oc2ccc3c(c2)OCO3)c(F)c1 [Example 327, 2-(Benzo[1,3]dioxol-5-yloxy)-N-[2-fluoro-4-(1-hydroxy-1-methyl-ethyl)-benzyl]-nicotinamide]
93 to 94 | CC(C)(O)c1ccc(CNC(=O)c2cccnc2Oc2ccc(F)cc2)c(F)c1 [Example 328, N-[2-Fluoro-4-(1-hydroxy-1-methyl-ethyl)-benzyl]-2-(4-fluoro-phenoxy)-nicotinamide]
